Measurements published in the NIST ThermoML archive (doi:10.1021/acs.jced.6b00691).

Experiment: xn = mol fraction of the nth substance listed
Conditions: Liquid, Taylor dispersion method, x2 = 0

CCCCCCCCCCCCCCCC [hexadecane] + O=C=O
Conditions | binary diffusion coefficient [m2/s]
298 K, 1000 kPa | 2.49e-09
298 K, 10000 kPa | 2.31e-09
298 K, 30000 kPa | 2.08e-09
323 K, 1100 kPa | 3.75e-09
323 K, 10000 kPa | 3.41e-09
323 K, 30000 kPa | 3.17e-09
323 K, 51000 kPa | 2.61e-09
323 K, 69000 kPa | 2.51e-09
348 K, 1000 kPa | 5.13e-09
348 K, 10000 kPa | 4.64e-09
348 K, 30000 kPa | 4.37e-09
348 K, 50000 kPa | 3.77e-09
348 K, 67000 kPa | 3.49e-09
373 K, 1100 kPa | 6.72e-09
373 K, 10000 kPa | 6.17e-09
373 K, 30000 kPa | 5.88e-09
373 K, 52000 kPa | 4.84e-09
373 K, 67000 kPa | 4.67e-09
398 K, 1100 kPa | 8.53e-09
398 K, 29000 kPa | 7.42e-09
398 K, 53000 kPa | 6.27e-09
398 K, 69000 kPa | 5.86e-09
423 K, 1100 kPa | 1.04e-08
423 K, 10000 kPa | 9.72e-09
423 K, 29000 kPa | 9.16e-09
423 K, 45000 kPa | 7.96e-09
423 K, 69000 kPa | 7.07e-09

CCCCCC [hexane] + O=C=O
Conditions | binary diffusion coefficient [m2/s]
298 K, 1300 kPa | 8.32e-09
298 K, 23000 kPa | 7.27e-09
298 K, 49000 kPa | 6.06e-09
298 K, 65000 kPa | 5.13e-09
323 K, 1200 kPa | 1.05e-08
323 K, 22000 kPa | 9.27e-09
323 K, 50000 kPa | 7.61e-09
323 K, 66000 kPa | 7.15e-09
373 K, 1200 kPa | 1.58e-08
373 K, 22000 kPa | 1.34e-08
373 K, 49000 kPa | 1.1e-08
373 K, 64000 kPa | 1.03e-08
423 K, 1200 kPa | 1.87e-08
423 K, 22000 kPa | 1.79e-08
423 K, 48000 kPa | 1.49e-08
423 K, 64000 kPa | 1.37e-08

CCCCCCCC [octane] + O=C=O
Conditions | binary diffusion coefficient [m2/s]
298 K, 1000 kPa | 6.32e-09
298 K, 11000 kPa | 5.66e-09
298 K, 33000 kPa | 4.72e-09
298 K, 50000 kPa | 4.28e-09
298 K, 66000 kPa | 3.83e-09
323 K, 900 kPa | 8.19e-09
323 K, 11000 kPa | 7.36e-09
323 K, 32000 kPa | 6.1e-09
323 K, 51000 kPa | 5.62e-09
323 K, 68000 kPa | 5.1e-09
348 K, 900 kPa | 1.04e-08
348 K, 11000 kPa | 8.98e-09
348 K, 33000 kPa | 7.7e-09
348 K, 50000 kPa | 7.07e-09
348 K, 69000 kPa | 6.54e-09
373 K, 1100 kPa | 1.26e-08
373 K, 11000 kPa | 1.11e-08
373 K, 31000 kPa | 9.46e-09
373 K, 50000 kPa | 8.87e-09
373 K, 67000 kPa | 8.01e-09
398 K, 1100 kPa | 1.48e-08
398 K, 11000 kPa | 1.34e-08
398 K, 31000 kPa | 1.14e-08
398 K, 51000 kPa | 1.06e-08
398 K, 69000 kPa | 9.67e-09
423 K, 1100 kPa | 1.67e-08
423 K, 11000 kPa | 1.62e-08
423 K, 29000 kPa | 1.36e-08
423 K, 51000 kPa | 1.27e-08
423 K, 65000 kPa | 1.14e-08

Cc1ccccc1 [toluene] + O=C=O
Conditions | binary diffusion coefficient [m2/s]
298 K, 1000 kPa | 5.53e-09
298 K, 11000 kPa | 5.09e-09
298 K, 30000 kPa | 4.77e-09
298 K, 48000 kPa | 4.28e-09
298 K, 68000 kPa | 3.92e-09
323 K, 1000 kPa | 7.28e-09
323 K, 10000 kPa | 6.78e-09
323 K, 30000 kPa | 6.32e-09
323 K, 49000 kPa | 5.7e-09
323 K, 66000 kPa | 5.17e-09
348 K, 1000 kPa | 9.26e-09
348 K, 11000 kPa | 8.62e-09
348 K, 30000 kPa | 8.02e-09
348 K, 48000 kPa | 7.31e-09
348 K, 67000 kPa | 6.54e-09
373 K, 1000 kPa | 1.14e-08
373 K, 10000 kPa | 1.04e-08
373 K, 30000 kPa | 9.81e-09
373 K, 51000 kPa | 8.94e-09
373 K, 67000 kPa | 8e-09
398 K, 1000 kPa | 1.38e-08
398 K, 10000 kPa | 1.24e-08
398 K, 30000 kPa | 1.17e-08
398 K, 48000 kPa | 1.05e-08
398 K, 68000 kPa | 9.6e-09
423 K, 1100 kPa | 1.6e-08
423 K, 10000 kPa | 1.5e-08
423 K, 30000 kPa | 1.4e-08
423 K, 50000 kPa | 1.23e-08
423 K, 67000 kPa | 1.14e-08
